Test results reported in paper PMC9783573, “Introduction of a SiFA Moiety into the D-Glutamate Chain of DOTA-PP-F11N Results in Radiohybrid-Based CCK-2R-Targeted Compounds with Improved Pharmacokinetics In Vivo” (Pharmaceuticals, 2022).
Non-standard residues stand in square brackets, D forms with d. Residues, ends and D or L forms follow the SMILES beside them. *: point of attachment. X1 = O=C(O)CN1CCN(CC(=O)O)CCN([C@H](CCC(=O)*)C(=O)O)CCN(CC(=O)O)CC1; Benzoyl(4-SiFtBu2) = CC(C)(C)[Si](F)(c1ccc(C(=O)*)cc1)C(C)(C)C; Nle = CCCC[C@H](N)C(=O)O; dDap = NC[C@@H](N)C(=O)O

Key:
[1] = biological target: T1, CCK-2R (Rattus norvegicus, UniProt P30553); test: Competitive binding (IC50) on AR42J cells with [177Lu]Lu-DOTA-PP-F11N as radiolabelled reference; settings: natLu-labelled peptide; AR42J cells 2.0 × 10^5/well, 3 h, 37 °C, [177Lu]Lu-DOTA-PP-F11N 0.3 pmol/well
T1 construct: CCK-2R expressing rat pancreatic cancer cells AR42J (CLS GmbH, Eppelheim,; host or cells: AR42J rat pancreatic cancer cells
T1 sequence (P30553 1-452): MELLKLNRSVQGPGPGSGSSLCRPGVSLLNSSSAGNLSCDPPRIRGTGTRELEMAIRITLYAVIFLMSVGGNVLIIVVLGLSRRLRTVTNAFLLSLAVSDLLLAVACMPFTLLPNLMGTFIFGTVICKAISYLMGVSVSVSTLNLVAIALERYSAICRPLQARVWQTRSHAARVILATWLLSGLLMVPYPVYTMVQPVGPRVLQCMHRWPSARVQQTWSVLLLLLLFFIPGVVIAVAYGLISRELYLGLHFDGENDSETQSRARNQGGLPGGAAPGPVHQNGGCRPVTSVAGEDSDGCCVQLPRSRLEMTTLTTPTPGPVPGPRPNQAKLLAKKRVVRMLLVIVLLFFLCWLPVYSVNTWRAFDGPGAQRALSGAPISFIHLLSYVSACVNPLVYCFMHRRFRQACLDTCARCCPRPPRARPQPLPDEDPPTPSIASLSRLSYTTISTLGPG
Method: Detailed description of all cell-based experiments is provided in the Supplementary Materials. In brief, competitive binding studies were conducted on AR42J cells (2.0 × 10^5 cells per 1 mL/well) via incubation at 37 °C for 3 h using [^177Lu]Lu-DOTA-PP-F11N (0.3 pmol) as a radiolabelled reference (n = 3).
Cell Culture. CCK-2R expressing rat pancreatic cancer cells AR42J (CLS GmbH, Eppelheim, Germany) were cultivated in monolayers in CELLSTAR ® cell culture flasks acquired from Greiner Bio-One GmbH (Frickenhausen, Germany) at 37 °C in a humidified atmosphere (5% CO2) using a HERAcell 150i-Incubator (Thermo Fisher Scientific Inc., Waltham, United States). As nutrient medium RPMI 1640 medium, supplemented with 5 mM L-Gln 5 mL non-essential amino acids (100×) and 10% FCS, was used. Furthermore, a Dulbecco’s PBS solution with 0.1% EDTA (v/v) was applied to detach the cells for cell passaging. The detached cells were counted using a Neubauer hemocytometer ( Paul Marienfeld, Lauda-Königshofen, Germany). In addition, all operations under sterile conditions were accomplished using a MSC-Advantage safety workbench (Thermo Fisher Scientific Inc., Waltham, United States).
Determination of IC50. AR42J cells (2.0 × 10^5 cells/well) were seeded into 24-well plates 24 ± 2 h prior to testing, using 1 mL of nutrient medium (RPMI 1640, 5 mM L-Gln, 5 mL non-essential amino acids (100×), 10% FCS). Cells were incubated at 37 °C in a humidified atmosphere (5% CO2).
After removal of the medium, each well was washed with 500 μL PBS. For the cell-based assay, 200 μL of nutrient medium (+5% BSA), [177Lu]Lu-DOTA-PP-F11N (25 μL, 0.3 pmol) as a radiolabeled reference and 25 μL of the peptide of interest in increasing concentrations (10−10 to 10−4 M) in triplicate were added to the cells. Thereafter, the assay was incubated for 3 h at 37 °C and thereafter, the supernatant was collected. The cells were washed with 300 μL PBS and the collected supernatant fractions were unified.
After lysis of the cells with NaOH (300 μL, 1 N) for 15 min, the respective wells were washed with NaOH (300 μL, 1 N) and both fractions were unified. The radioactivity of both, the supernatant and the lysed fractions was quantified using a γ-counter (PerkinElmer Inc., Waltham, United States ). The obtained data were evaluated via the GraphPad PRISM software ( GraphPad Software Inc., La Jolla, United States), which calculates the halfmaximal inhibitory concentration ( IC50) of the peptides. […]

[2] = Lipophilicity, n-octanol/PBS (pH 7.4) distribution coefficient; assay type: physicochemical; settings: 177Lu-labelled peptide; n-octanol/PBS pH 7.4; read-out: logD7.4
Method: Lipophilicity (depicted as octanol-phosphate-buffered saline solution (PBS, pH = 7.4) distribution coefficient, logD7.4) was determined via dissolving the ^177Lu-labelled peptide (approx. 1 MBq) in a mixture (1/1, v/v) of n-octanol and PBS. The suspension was vortexed in a reaction vial (1.5 mL) for 3 min at RT and the vial was centrifuged at 9000× […] for 5 min (Biofuge 15, Heraus Sepatech GmbH, Osterode, Germany). 200 μL aliquots of both layers were measured separately in a γ-counter (Perkin Elmer, Waltham, MA, USA). The experiment was repeated at least five times.

## CCCC[C@H](NC(=O)[C@H](Cc1c[nH]c2ccccc12)NC(=O)CNC(=O)[C@H](Cc1ccc(O)cc1)NC(=O)[C@H](C)NC(=O)[C@@H](CCC(=O)O)NC(=O)[C@@H](CCC(=O)O)NC(=O)[C@@H](CNC(=O)c1ccc([Si](F)(C(C)(C)C)C(C)(C)C)cc1)NC(=O)[C@@H](CCC(=O)O)NC(=O)[C@@H](CCC(=O)O)NC(=O)[C@@H](CCC(=O)O)NC(=O)[C@@H](CCC(=O)O)NC(=O)CC[C@H](C(=O)O)N1CCN(CC(=O)O)CCN(CC(=O)O)CCN(CC(=O)O)CC1)C(=O)N[C@@H](CC(=O)O)C(=O)N[C@@H](Cc1ccccc1)C(N)=O [[nat/177Lu]Lu-(R)-DOTAGA-rhCCK-3, metal not drawn] (X1-[dE][dE][dE][dE][dDap](Benzoyl(4-SiFtBu2))[dE][dE]AYGW[Nle]DF-NH2)
[1]
  IC50: 0.156 ± 0.004 µM
[2]
  logD: -2.03 ± 0.1
